# Data reported in patent publication US7897637B2, “Methods of using flavonoids to enhance memory” (The Salk Institute for Biological Studies, priority 2006, dated 2011).
# “Also recorded” adds a separate entry of the source.
# Experiments:
# CREB [1] = experiment: CREB activation in primary cortical neuron cultures (immunoblotting); type: cell-based, rat; conditions: 10 μM, 30 minutes to 6 hours
# Description: (§1) The average phosphoprotein signal from the blots was quantified by densitometry and normalized to total protein,
# (§2) Five (5) day old cortical cultures were next pretreated with 50 μM of the MEK inhibitor, PD98059, before the addition of 10 μM fisetin for 4 hours.
# (§3) Primary cultures of rat cortical neurons were prepared as previously described by Li et al. (Neuron, 19:453-63, 1997, herein incorporated by reference as to the method). Analysis of ERK and CREB phosphorylation was performed using SDS-polyacrylamide gel electrophoresis and immunoblotting as previously described by Sagara et al. (J. Neurochem., 90:1144-1155, 2004) using equal amounts of protein from 5 day old cortical cultures. Blots were scanned and quantified using NIH Image. Results were analyzed using an unpaired Student's t-test.
# protein kinase A = conditions: PC12 cells; Sagara et al. 2004; cited from earlier work
# ERK = ERK activation in primary cortical neuron cultures (immunoblotting); type: cell-based, rat; conditions: 10 μM, 30 minutes to 6 hours
# Description: as §1, §2, §3
# PC12 cells = conditions: at 10 μM; Sagara et al. 2004; cited from earlier work
# cAMP = cAMP levels in hippocampal slices (Scintillation Proximity Assay); type: cell-based
# Description: Hippocampal slices were treated with fisetin using the conditions where maximal stimulation of CREB phosphorylation and facilitation of LTP were observed. Briefly, hippocampal slices in ACSF were treated with 1 μM fisetin for 5 minutes (fisetin) or 3 μM rolipram for 30 minutes (rolipram) and then either immediately frozen or treated with […] forskolin for an additional 15 minutes (rolipram+forskolin; fisetin+forskolin) prior to freezing. Additional slices were treated only with 5 μM forskolin for 15 minutes (forskolin). Forskolin, an activator of adenylyl cyclase, and rolipram were used as positive controls. The levels of cAMP in the slices were measured using a Scintillation Proximity Assay and presented as pmole/mg protein±S.D.
# Rabbits = experiment: Small blood clot embolism model of brain ischemia (P50); type: in vivo; conditions: 50 mg/kg intravenously, bolus 5 minutes after embolization; 24 hours post-embolism
# Description: Rabbits were embolized with small blood clots of varying size (from about 1 mg to about 4 mg) according to the procedure described by Lapchak et al. (Exp. Neurol., 188.279-285, 2004). […] In some subjects, fisetin treatment (50 mg/kg delivered intravenously) was given as a bolus 5 minutes after embolization. Twenty four (24) hours later, a naïve observer rated each treated or control animal as either behaviorally normal or abnormal. Rabbits judged “abnormal” included those with at least one of the following symptoms: ataxia, leaning, circling, lethargy, nystagmus, loss of balance, loss of sensation and occasionally paraplegia. […] The effective stroke dose or P50 value was then calculated as the amount of microclots (in mg) that produce behavioral impairment in 50% of the animals within a specific treatment group.
# Sprague-Drawley rats = experiment: Morris water maze (spatial learning and memory); type: in vivo; conditions: 25 mg/kg by gavage
# Description: This example describes use of the Morris water maze (MWM) to examine hippocampus-dependent spatial learning and memory in rats. The standard test consists of two parts; a training phase, which measures the ability of the animals to learn where a hidden platform is located within an opaque pool of water and a probe test, which is performed 24 hours after the last training trial and measures the ability of the animals to remember the location of the platform (Vorhees & Williams, Nature Protocols 1.848-58, 2(006))
# To test whether oral administration of fisetin could increase spatial learning and/or memory, young male Sprague-Drawley rats (8 weeks old) were administered fisetin by gavage (25 mg/kg) beginning one day before the training phase and continuing throughout the 8 days of training. The rats were given four trials a day for 8 days. Retention of the spatial training was assessed 24 hours after the last training trial. The probe trial consisted of a 60 second free swim in the pool without the platform. Both the training and probe trials were monitored by a video camera mounted above the pool and all data were analyzed by software provided with the video-tracking program.
# ERK2 (p42) = ERK2 (p42) phosphorylation in hippocampal slices (immunoblotting, densitometry); type: cell-based, rat; conditions: for p42 phosphoprotein signal normalized to total protein: 1 μM
# Description: (§4) Western blots panels A and B) of hippocampal slices treated with (A) 1 μM fisetin or (B) pretreated for 30 minutes with either 50 μM PD98059 (PD) or 10 μM U0126 (U) before the addition of 1 μM fisetin for 5 minutes, which blots were probed with the indicated antibodies.
# (§5) Hippocampal slices in artificial cerebral spinal fluid (ACSF) were treated with either 1 μM fisetin for 5-20 minutes or pretreated for 30 minutes with either 50 μM PD98059 (PD) or 10 μM U0126 (J) before the addition of 1 μM fisetin for 5 minutes. Equal amounts of protein were analyzed by SDS-PAGE and immunoblotting with antibodies to phospho-ERK and phospho-CRFB along with antibodies to the unphosphorylated forms of the proteins. The average phosphoprotein signal from the blots was quantified by densitometry and normalized to total protein was plotted±S.D.
# C57BL/6 mice = experiment: MPTP-induced striatal dopamine loss; type: in vivo
# Description: C57BL/6 mice from about 11 to 12 week old (20-25 g) were injected with a single dose of […] 1-methyl-4-phenyl-1,2,3,6-tetrahydropyridine (MPTP). MPTP is toxic to dopaminergic neurons in the substantia nigra, and produces many of the symptoms of Parkinson's disease. MPTP-treated mice have long been used as a model of human Parkinson's disease (see, e.g., reviews by Smeyne and Jackson-Lewis, Brain Bes. Mol. Brain Res., 134(1):57-66, 2005; Tetrud and Langston, Acta Neurol. Scand. Suppl., 126:35-40, 1989). After 8 days, the animals were euthanized and the striata dissected and assayed for dopamine content by HPLC combined with electrochemical detection, as previously described (Irwin e/al., Brain Res., 572:224-231, 1992). One group of untreated mice (n=4) and one group of MPTP-treated mice (n=4) received orally administered fisetin (25 mg/kg) beginning one day before treatment groups received MPTP and continuing for the same time period as MPTP treatment in treatment groups. Mice untreated with MPTP or fisetin (control) and mice treated with MPTP alone were also examined.
# [2] = test system: CA1 area of rat hippocampal slices; experiment: Long-term potentiation in CA1 area of hippocampal slices; type: cell-based
# CREB [3] = experiment: CREB phosphorylation in hippocampal slices (immunoblotting, densitometry); type: cell-based, rat; conditions: for CREB phosphoprotein signal normalized to total protein: 1 μM
# Description: as §4, §5
# [4] = weak tetanic stimulation 15 pulses at 100 Hz
smiles,measurement,setting,value
"O=c1c(O)c(-c2ccc(O)c(O)c2)oc2cc(O)ccc12 [fisetin, 3,3′,4′,7-tetrahydroxyflavone]",CREB activation,CREB [1],enhanced CREB activation
same,activation of the cAMP target protein kinase A,protein kinase A,does not result in the activation
same,ERK activation,ERK,induced ERK activation
same,differentiation of the cells induced,PC12 cells,75-80%
same,effect on cAMP levels by itself,"cAMP; 1 μM fisetin 5 minutes, 3 μM rolipram 30 minutes",no effect; also recorded: does not increase cAMP levels
same,potentiation of the effect of forskolin on cAMP levels,cAMP; then 5 μM forskolin for 15 minutes,nor did it potentiate
same,P50 value (mg clot that produce behavioral deficits in 50% of the animals),Rabbits,2.18 ± 0.42 mg
same,effect on swim speed or thigmotaxis,Sprague-Drawley rats,no significant effect
same,ability of the rats to learn the location of the hidden platform,Sprague-Drawley rats; 8 days of training,no clear effect
same,probe test: time in the quadrant where the platform had been located (spatial memory),"Sprague-Drawley rats; 24 hours after last training trial, vs vehicle",significantly more time; also recorded: enhances spatial memory
same,p42 phosphoprotein signal normalized to total protein,ERK2 (p42); 5 min,1.68±0.06
same,p42 phosphoprotein signal normalized to total protein,ERK2 (p42); 10 min,1.31±0.05
same,p42 phosphoprotein signal normalized to total protein,ERK2 (p42); 20 min,1.42±0.03
same,increase in ERK2 phosphorylation,"ERK2 (p42); hippocampal slices, 1 μM fisetin",2 fold
same,striatal dopamine concentration,C57BL/6 mice; MPTP and fisetin 25 mg/kg oral,at least as high as control
same,striatal dopamine concentration,"C57BL/6 mice; fisetin alone 25 mg/kg oral, no MPTP",highest concentrations of striatal dopamine
same,induction of LTP following weak tetanic stimulation,"[2]; 15 pulses at 100 Hz, fisetin 20 minutes prior to, during and after",LTP was induced; also recorded: facilitates the induction of LTP
same,effect on APV-dependent inhibition of excitatory postsynaptic potentials,[2]; in the presence of APV,no effect
same,effect on basal synaptic transmission,[2]; no tetanus,no direct effect
same,maximal effective dose for facilitation of LTP induction,[2]; [4],1 µM
same,persistence of facilitated LTP,[2]; [4],at least 60 minutes
same,CREB phosphoprotein signal normalized to total protein,CREB [3]; 5 min,2.87±0.56
same,CREB phosphoprotein signal normalized to total protein,CREB [3]; 10 min,2.72±0.12
same,CREB phosphoprotein signal normalized to total protein,CREB [3]; 20 min,2.55±0.39
same,increase in CREB phosphorylation,"CREB [3]; hippocampal slices, fisetin",~3 fold
